Experiments:
Conditions in all cases: 2.24 kg/ha, 2-3 weeks after treatment
[1] = test system: three broadleaf weeds: wild mustard, redroot pigweed and curly dock; test: Pre-emergence herbicidal activity, broadleaf weeds (Table III); assay type: in vivo, Brassica kaber, Amaranthus retroflexus, Rumex crispus
Method: (§1) The herbicidal effect was observed by comparing the extent of weed control in test flats treated with the compounds against that occurring in similar non-treated control flats. All were applied at 3.57 lb/A (4 kg/ha) to pre-emergence and post-emergence screening flats. An 80 gal/A (748.3 1/ha) spray volume was utilized. Post-emergence flats were seeded 12 days prior to treatment. Pre-emergence flats were seeded one day prior to treatment. Overhead watering of pre-emergence flats and soil surface watering of post-emergence flats, so as to avoid wetting the foliage, were carried out for the duration of the test.
(§2) Weed seeds were planted in a flat at a seed depth of 0.5 inch (1.3 cm). Soil for flats was prepared using loam soil fortified with 17-17-17 fertilizer (N-P2 O5 -K2 O on a weight basis) and Captan 80W fungicide. The test weeds were as follows:
(§3) The spray solutions were prepared by dissolving 240 mg of test compound in 20 ml of acetone containing 1% polyoxyethylene sorbitan monolaurate emulsifier, then adding 20 ml of water to the resulting solution. The spray solutions were applied using a linear spray table. Pre-emergence flats are raised to the level of the post-emergence foliage canopy by setting the flats on a wooden block.
(§4) The degree of weed control was visually assessed and recorded as percentage control compared to the growth of the same species in an untreated check flat of the same age. The rating scale ranges from 0 to 100%, where 0 equals no effect with plant growth equal to the untreated control, and 100 equals complete kill.
(§5) Compounds 68 to 145 in Table I were tested generally similarly to Compounds No. 1 to 67 with the following differences: The rate of application was 2 lb/acre (2.24 kg/ha), no 6-day evaluations were made, and the weeds were:
(§6) Three broadleaf weeds: wild mustard, redroot pigweed (Amaranthus retroflexus) and curly dock (Rumex crispus).
(§7) Ratings were taken 2-3 weeks after treatment.

[2] = test system: four grassy weeds: wild oat, watergrass, green foxtail and crabgrass; test: Pre-emergence herbicidal activity, grassy weeds (Table III); assay type: in vivo
Method: as §1, §2, §3, §4, §5
(§8) Four grassy weeds: wild oat, watergrass, green foxtail and crabgrass (Digitaria sanguinalis);
as §7

[3] = test system: three broadleaf weeds: wild mustard, redroot pigweed and curly dock; test: Post-emergence herbicidal activity, broadleaf weeds (Table III); assay type: in vivo, Brassica kaber, Amaranthus retroflexus, Rumex crispus
Method: as §1, §2, §3, §4, §5, §6, §7

[4] = test system: four grassy weeds: wild oat, watergrass, green foxtail and crabgrass; test: Post-emergence herbicidal activity, grassy weeds (Table III); assay type: in vivo
Method: as §1, §2, §3, §4, §5, §8, §7

SMILES	% Control, Pre-Emergence, BL Avg. [1] [%]	% Control, Pre-Emergence, GR Avg. [2] [%]	% Control, Post-Emergence, BL Avg. [3] [%]	% Control, Post-Emergence, GR Avg. [4] [%]
CCCN(CCC)P(=O)(Sc1ccccc1)N(CCC)CCC [Compound 78]	0	0	98	50
CCCCN(CCCC)P(=O)(SCCC)N(CCC)CCC (centres unmarked) [Compound 124]	0	0	79	67
C=CCSP(=O)(N(CCC)CCC)N(CCC)CCC [Compound 99]	37	22	99	58
CCCCN(CCCC)P(=O)(SC(C)C)N(C)C (centres unmarked) [Compound 109]	20	23	98	85
CCCCCSP(=O)(N(CCC)CCC)N(CCCC)CCCC (centres unmarked) [Compound 130]	16	0	97	59
CCCSP(=O)(N(CCC)CCC)N(CCC)CCC [Compound 71]	57	27	99	64
CCCCN(CCCC)P(=O)(SC(C)C)N(CC)CC (centres unmarked) [Compound 87]	12	5	99	62
CCCN(CCC)P(=O)(SC(C)(C)CC)N(CCC)CCC [Compound 81]	0	0	83	66
C=CCSP(=O)(N(CC)CCCC)N(CCC)CCC (centres unmarked) [Compound 115]	0	0	86	70
CCCCCSP(=O)(N(CCC)CCC)N(CCC)CCC [Compound 131]	23	0	93	58
CCCN(CCC)P(=O)(SC1CCCCC1)N(CCC)CCC [Compound 118]	0	0	63	30
CCCCCSP(=O)(N(CCCC)CCCC)N(CCCC)CCCC [Compound 132]	20	8	67	40
CCCCN(CCCC)P(=O)(SC1CCCCC1)N(C)C (centres unmarked) [Compound 117]	0	0	77	50
C=CCSP(=O)(N(CCC)CCC)N(CCCC)CCCC (centres unmarked) [Compound 129]	0	0	86	69
CCCCN(CC)P(=O)(SCC)N(CCC)CCC (centres unmarked) [Compound 88]	0	0	96	89
CCCCSP(=O)(N(CCC)CCC)N(CCCC)CCCC (centres unmarked) [Compound 126]	0	0	86	61
CCCSP(=O)(N(CC)CC)N(CCC)CCC (centres unmarked) [Compound 145]	30	0	87	60
CCCCN(CCCC)P(=O)(SC(C)C)N(CCC)CCC (centres unmarked) [Compound 125]	0	0	70	59
CCCCCSP(=O)(N(CC)CCCC)N(CCC)CCC (centres unmarked) [Compound 133]	10	0	97	59
CCCCN(CCCC)P(=O)(SCCC)N(CC)CC (centres unmarked) [Compound 85]	10	12	99	89
CCCN(CCC)P(=O)(SC(C)CC)N(CCC)CCC (centres unmarked) [Compound 80]	53	25	100	80
CCCN(CCC)P(=O)(SCC)N1CC(CC)CCC1C (centres unmarked) [Compound 96]	10	0	67	65
CCCCN(CCCC)P(=O)(SC(C)CC)N(CCC)CCC (centres unmarked) [Compound 127]	0	0	99	59
CCCCN(CC)P(=O)(SC(C)CC)N(CCC)CCC (centres unmarked) [Compound 114]	0	0	93	56
CCCCN(CCCC)P(=O)(SCCC)N(C)C (centres unmarked) [Compound 108]	13	15	98	76
C=CCN(CC=C)P(=O)(SCCC)N(CCC)CCC (centres unmarked) [Compound 76]	0	0	99	61

From patent US5189169A (priority 1991, dated 1993)
